{"source": "patent US11577248B2", "about": "“Biological membrane-based sensor” (McMaster University, priority 2017, dated 2023)", "key": {"[1]": {"system": "RBC membranes", "assay": "X-ray diffraction of RBC/aspirin complexes (multi-lamellar RBC membranes on silicon wafers)", "design": "species or system human", "text": "X-ray scattering data was obtained using the Biological Large Angle Diffraction Experiment (BLADE) in the Laboratory for Membrane and Protein Dynamics at McMaster University. BLADE uses a 9 kW (45 kV, 200 mA) CuKα rotating anode at a wavelength of 1.5418 Å. Both source and detector are mounted on movable arms such that the membranes stay horizontal during the measurements. Focusing multi-layer optics provides a high intensity parallel beam with monochromatic X-ray intensities up to 10^10 counts/(mm^2·s). This beam geometry provides optimal illumination of the solid supported membrane samples to maximize the scattering signal. Note that there is no risk of sample damage using this in-house technique because of the large beam size and relatively low intensity of the X-ray beam as compared to synchrotron sources. The result of an X-ray experiment is a 2-dimensional intensity map of a large area of the reciprocal space, as sketched in FIG. 5. The corresponding real-space length scales are determined by d=2π/ ? and cover length scales from about 2.5 to 100 Å. All scans were measured at 28° C. and 50% relative humidity (RH) hydration. As depicted in FIG. 5a), the wafers were oriented in the X-ray diffractometer, such that the q∥-axis probed lateral structure, parallel to the wafer surface, and the perpendicular axis, qz, probed out-of-plane structure, perpendicular to the substrate. The out-of-plane structure of the membrane was determined using specular reflectivity. The relative electron density, ρ(z), is approximated by a 1-dimensional Fourier analysis. [formula] N is the highest order of the Bragg peaks observed in the experiment. The integrated peak intensities, I, are multiplied by q, to receive the form factors, F(q,). The bilayer form factor F(qz), which is in general a complex quantity, is real-valued in the case of centro-symmetry. The phase problem of crystallography, therefore, simplifies to the sign problem F(qz)=±|F(qz)| and the phases, ν, can only take the values±1. The phases, ν, are needed to reconstruct the electron density profile from the scattering data following Eq. (1). When the membrane form factor F(qz) is measured at several qz values, a continuous function, T(qz), which is proportional to F(qz), can be fitted to the data. Once an analytical expression for T(qz) has been determined from fitting the experimental peak intensities, the phases ν, can be assessed from T(qz). The phase array ν, =[−1−1 1−1 1] was used for all samples. The electron densities determined by Eq. (1) are on a relative scale. In order to compare the electron densities in FIGS. 6c) and 7c), ρ in the membrane centre at z=0 was set to 0 and the electron density at the boundaries (z values between 25 and 30 Å depending on the lamellar spacing), which probe the water layer between the stacked membranes, were scaled to the electron density of water of ρ=0.33 e^−/Å^3. In order to prepare complexes of RBC membranes containing increasing amounts of aspirin, a solution of 9 mg/mL acetylsalicylic acid (molecular weight 180 g/mol) in 18.2 MΩ·cm water was prepared. 2 μL, 3 μL, 4 μL, 5 μL, and 6 μL of this solution were added to 100 μL of the final ghosts solution resulting in acetylsalicylic acid concentrations of 1 mM, 1.5 mM, 2 mM, 2.5 mM and 3 mM. The resulting solutions were applied onto silicon wafers and dried slowly and incubated for 5 days following the above protocol. The in-plane peaks are the result of a hexagonal packing of the lipid tails in the hydrophobic membrane core (planar group p6). The distance between two acyl tails is determined to be α=4π/(√3q), where q∥ is the position of the corresponding correlation peak. The area per lipid chain is obtained to AT=(√3/2) α^2 Lipid tail distances in lo and ld domains and lipid tail areas are listed in Table 1. […]"}, "[2]": {"system": "human red blood cell membranes", "assay": "HBLOC sensor: cyclic voltammetry with ferricyanide on RBC membrane-coated nanostructured gold electrodes", "conditions": "ferricyanide redox indicator, FIG. 10", "text": "Inventors have developed a method which isolates human red blood cells on a silicon chip for use as a safe and quantitative test for hemolytic bacteria. To develop our human blood cells on a chip, a sample of human blood is exposed to a hypotonic solution which causes the RBC's to burst and empty their contents. A series of sonication and washing steps are then applied to isolate only the RBC membrane, and to remove all hemoglobin and other contaminants. The result is a solution of empty membrane sacks known as RBC “ghosts”. This solution is then applied to sensors and allowed to slowly dry, leaving behind stacked sheets of RBC membrane. The sensors use nanostructured gold electrodes, functionalized for the application of the RBC membranes and maximizing the surface area for increased sensitivity of the tests. The coated electrodes are then used as part of a 3-electrode electrochemical cell, where any damage to the cell membrane allows a redox-indicator in solution to access the electrode surface. Under cyclic voltammetry or chronoamperometry measurements the reduction/oxidation of the indicator molecule gives rise to a current that is proportional to the amount of membrane damage. […] Membrane damage was quantitatively measured using ferricyanide as the redox indicator and cyclic voltammetry. […]"}}}
{"smiles": "CC(=O)Oc1ccccc1C(=O)O", "note": "[aspirin, acetylsalicylic acid]", "values": [{"measurement": "ASA concentration at which lamellar spacing and membrane thickness of lo and ld domains coincide", "setting": "[1]; 0-3 mM ASA series", "value": 2.5, "unit": "mM"}, {"measurement": "effect on lamellar spacing and membrane thickness of ld lipid domains", "setting": "[1]; 1-3 mM ASA", "value": "not affected"}, {"measurement": "overall lamellar spacing of the RBC membranes", "setting": "[1]; ASA concentration of 2.5 mM", "value": 53.4, "unit": "Å"}, {"measurement": "overall membrane thickness", "setting": "[1]; ASA concentration of 2.5 mM", "value": 41.8, "unit": "Å"}, {"measurement": "domain preference of the interaction with RBC membranes", "setting": "[1]; electron densities of lo and ld domains, 1 mM ASA", "value": "preferably interacts with lo regions"}, {"measurement": "effect on lipid spacing in the ld domain", "setting": "[1]; in presence of aspirin", "value": "unchanged"}, {"measurement": "distance between lipids alo in lo domains", "setting": "[1]; in presence of aspirin, increase from 4.69 Å in pure RBC membranes", "value": 4.85, "unit": "Å"}, {"measurement": "lipid tail area in lo domains", "setting": "[1]; in presence of aspirin, increase from 19.04 Å^2 in pure RBC membranes", "value": 20.37, "unit": "Å^2"}, {"measurement": "effect on lipid domain sizes", "setting": "[1]; increasing ASA content", "value": "approximately independent of aspirin concentration"}, {"measurement": "effect on peptide domain size", "setting": "[1]; increasing ASA content", "value": "slight increase in peptide domain size"}, {"measurement": "location of aspirin in the membrane (|z| of increased electron density, head group region)", "setting": "[1]; lo lipid domains, RBC membranes + 1 mM ASA vs pure RBC membrane", "value": "~22.8", "unit": "Å"}]}
{"smiles": "CCCCCCCCCCCCOS(=O)(=O)[O-].[Na+]", "note": "[SDS, sodium dodecyl sulfate]", "values": [{"measurement": "membrane damage: reduction and oxidation peak currents", "setting": "[2]", "value": "increases in the reduction and oxidation peak currents"}]}
